Results reported in US4507313A, “Oxadiazolyl-imidazo-[1,4]benzodiazepines and their use in treatment of diseases of the central nervous system” (A/S Ferrosan, priority 1982, dated 1985).

What was measured:
benzodiazepine receptors [1] = experiment: Displacement of 3H-flunitrazepam binding in vitro (rat forebrain membrane suspension); conditions: 3H-flunitrazepam 1.0 nM, 0° C., 25 mM KH2PO4 pH 7.1, rat forebrain, 40-60 min
benzodiazepine receptors [2] = experiment: Inhibition of 3H-flunitrazepam binding to benzodiazepine receptors in living brain, in vivo; conditions: mice, usually subcutaneous; 3H-flunitrazepam i.v. 15 min later, killed after further 20 min; 50% reduction of specific binding
Method: The ED50 value represents the dose (mg/kg) of a test substance which causes the specific binding of flunitrazepam to benzodiazepine receptors in a living brain to be reduced to 50% of the control value. Such an in vivo test is carried out as follows:
Groups of mice are injected with the test substance at different doses and usually subcutaneously. 15 minutes later, ^3 H-flunitrazepam is given intravenously to the mice and after a further 20 minutes, the mice are killed, their […] by scintillation counting. The ED50 value is determined from dose-response curves.

CCc1noc(-c2ncn3c2CN(C)C(=O)c2ccccc2-3)n1 [3-[5-(3-ethyl-1,2,4-oxadiazole)-yl]-5,6-dihydro-5-methyl-6-oxo-4H-imidazo[1,5-a][1,4]benzodiazepine] was tested, and the “Inhibition of 3H-flunitrazepam-binding in vitro IC50” value (“Inhibition … in vitro IC50” below) (benzodiazepine receptors [1]) was 12 ng/mL and the “Inhibition of 3H-flunitrazepam-binding in vivo ED50” value (shortened to “Inhibition … in vivo ED50”) (benzodiazepine receptors [2]) was 2.2 mg/kg.
With CCc1noc(-c2ncn3c2CN(C)C(=O)c2cc(F)ccc2-3)n1 [5,6-dihydro-3-[5-(3-ethyl-1,2,4-oxadiazole)-yl]-8-fluoro-5-methyl-6-oxo-4H-imidazo[1,5-a][1,4]benzodiazepine] the “Inhibition … in vitro IC50” value (benzodiazepine receptors [1]) was 3.5 ng/mL and the “Inhibition … in vivo ED50” value (benzodiazepine receptors [2]) was 4.5 mg/kg.
CCc1noc(-c2ncn3c2CN(C)C(=O)c2cc(Cl)ccc2-3)n1 [8-chloro-5,6-dihydro-3-[5-(3-ethyl-1,2,4-oxadiazole)-yl]-5-methyl-6-oxo-4H-imidazo[1,5-a][1,4]benzodiazepine] was tested, and the “Inhibition … in vitro IC50” value (benzodiazepine receptors [1]) was > 10 ng/mL and the “Inhibition … in vivo ED50” value (benzodiazepine receptors [2]) was 5.9 mg/kg.
For CCOC(=O)c1ncn2c1CN(C)C(=O)c1ccccc1-2 [ethyl-5,6-dihydro-5-methyl-6-oxo-4H--imidazo[1,5-a][1,4]benzodiazepine-3-carboxylate, reference compound], the “Inhibition … in vivo ED50” value (benzodiazepine receptors [2]) was > 30 mg/kg.
In the case of CCOC(=O)c1ncn2c1CN(C)C(=O)c1cc(Cl)ccc1-2 [ethyl-8-chloro-5,6-dihydro-5-methyl-6-oxo-4H--imidazo[1,5-a][1,4]benzodiazepine-3-carboxylate, reference compound], the “Inhibition … in vitro IC50” value (benzodiazepine receptors [1]) is reported as 7.9 ng/mL and the “Inhibition … in vivo ED50” value (benzodiazepine receptors [2]) is reported as > 30 mg/kg.
